Results published in ChEMBL document CHEMBL5108030, “Structure activity relationships leading to the identification of the indirect activator of AMPK, R419” (Bioorg Med Chem, 2022).

Tests used:
[1] = target: AMP-activated protein kinase, AMPK; experiment: Activation of AMPK in human HepG2 cells assessed as increase in ACC phosphorylation at Ser79 incubated for 1 hr; assay type: cell-based
A549 = experiment: Antiproliferative activity against human A549 cells assessed as cell growth inhibition incubated for 48 hrs by DAPI staining assay; assay type: functional, cell-based; conditions: A549, 48 h
NCI-H1299 = experiment: Antiproliferative activity against human NCI-H1299 cells assessed as cell growth inhibition incubated for 48 hrs by DAPI staining assay; assay type: functional, cell-based; conditions: NCI-H1299, 48 h
[2] = target: AMP-activated protein kinase, AMPK; experiment: Activation of AMPK in human HepG2 cells assessed as reduction in mitochondrial ATP production incubated for 1 hr; assay type: cell-based
[3] = Microsomal stability in human liver microsomes assessed as half life; assay type: ADME, Microsome
Cytochrome P450 3A4 [4] = target: T1, Cytochrome P450 3A4 (Homo sapiens, UniProt P08684); experiment: Inhibition of CYP3A4 (unknown origin) in presence of NADPH; assay type: ADME
T1 sequence (P08684 whole entry): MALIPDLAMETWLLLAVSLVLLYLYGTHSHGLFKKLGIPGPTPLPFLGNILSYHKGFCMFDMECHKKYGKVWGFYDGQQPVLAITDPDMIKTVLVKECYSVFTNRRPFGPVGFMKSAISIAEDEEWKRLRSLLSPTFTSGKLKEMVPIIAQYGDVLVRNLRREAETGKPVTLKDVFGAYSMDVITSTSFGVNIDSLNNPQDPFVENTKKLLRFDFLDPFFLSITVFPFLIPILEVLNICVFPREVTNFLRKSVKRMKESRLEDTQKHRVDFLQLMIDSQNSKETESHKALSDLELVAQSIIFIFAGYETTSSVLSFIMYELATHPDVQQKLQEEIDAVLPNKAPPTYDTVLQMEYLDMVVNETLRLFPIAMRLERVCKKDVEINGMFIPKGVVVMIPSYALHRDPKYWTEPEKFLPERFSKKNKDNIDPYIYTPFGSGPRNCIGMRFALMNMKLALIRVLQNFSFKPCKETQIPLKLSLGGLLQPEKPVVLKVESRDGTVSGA

Cytochrome P450 3A4 [5] = target: T1, Cytochrome P450 3A4; experiment: Inhibition of CYP3A4 (unknown origin); assay type: ADME
hERG (KCNH2) = hERG (KCNH2) (Homo sapiens, UniProt Q12809); experiment: Inhibition of human ERG at 3 uM; assay type: toxicity
Sequence of hERG (KCNH2) (Q12809 whole entry): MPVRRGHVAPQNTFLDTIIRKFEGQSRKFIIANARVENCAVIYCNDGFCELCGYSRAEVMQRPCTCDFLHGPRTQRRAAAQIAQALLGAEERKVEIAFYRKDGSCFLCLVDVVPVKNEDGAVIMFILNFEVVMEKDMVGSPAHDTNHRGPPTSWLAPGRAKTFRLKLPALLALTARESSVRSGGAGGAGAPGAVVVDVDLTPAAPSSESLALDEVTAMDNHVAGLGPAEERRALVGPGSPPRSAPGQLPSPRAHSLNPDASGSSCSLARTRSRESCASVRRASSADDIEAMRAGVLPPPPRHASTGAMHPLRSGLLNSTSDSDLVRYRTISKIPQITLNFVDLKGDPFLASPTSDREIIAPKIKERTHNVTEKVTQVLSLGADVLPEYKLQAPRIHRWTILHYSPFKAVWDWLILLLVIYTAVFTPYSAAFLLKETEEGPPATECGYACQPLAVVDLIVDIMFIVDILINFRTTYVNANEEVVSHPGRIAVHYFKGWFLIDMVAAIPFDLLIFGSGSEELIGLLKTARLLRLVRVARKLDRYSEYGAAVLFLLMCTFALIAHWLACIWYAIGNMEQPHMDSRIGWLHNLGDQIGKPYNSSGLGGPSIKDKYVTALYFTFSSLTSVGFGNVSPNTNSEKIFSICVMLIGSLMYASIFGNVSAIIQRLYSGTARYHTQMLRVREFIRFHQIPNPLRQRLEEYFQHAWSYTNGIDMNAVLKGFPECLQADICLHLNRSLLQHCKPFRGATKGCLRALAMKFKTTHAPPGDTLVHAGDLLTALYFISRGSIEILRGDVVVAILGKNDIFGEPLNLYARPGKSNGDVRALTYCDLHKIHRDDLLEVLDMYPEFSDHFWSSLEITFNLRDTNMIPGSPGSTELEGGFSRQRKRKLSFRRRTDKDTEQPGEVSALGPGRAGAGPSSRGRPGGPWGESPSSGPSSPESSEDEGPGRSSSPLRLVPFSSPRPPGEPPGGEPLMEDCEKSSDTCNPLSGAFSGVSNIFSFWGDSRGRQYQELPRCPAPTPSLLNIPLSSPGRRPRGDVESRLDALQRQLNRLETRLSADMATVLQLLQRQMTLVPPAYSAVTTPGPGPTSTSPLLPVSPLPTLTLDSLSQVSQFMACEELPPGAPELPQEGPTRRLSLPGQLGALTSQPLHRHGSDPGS

Row | Compound | EC50 [1] [nM] | IC50 (A549) [nM] | IC50 (NCI-H1299) [nM] | IC50 [2] [nM] | also measured
1 | COc1ccc(S(=O)(=O)N2CCN(C(=O)c3ccc(C(=O)NC4CCN(Cc5ccc(C#N)cc5)CC4)nc3)CC2)cc1 | 548 | – | – | – | –
2 | N#Cc1ccc(CN2CCC(NC(=O)c3ccc(C(=O)N4CCC(C(=O)c5ccc(-n6cccn6)cc5)CC4)nc3)CC2)cc1 | 86 | 10400 | 10900 | – | –
3 | N#Cc1ccc(CN2CCC(NC(=O)c3ccc(C(=O)N4CCC(C(O)c5ccc(F)cc5)CC4)cn3)CC2)cc1 (centres undefined) | 55 | – | – | 619 | –
4 | CC(c1ccccc1)N1CCC(NC(=O)c2ccc(C(=O)N3CCN(Cc4ccc(F)cc4)CC3)cn2)CC1 (centres undefined) | 129 | – | – | – | –
5 | COc1ccc(C(=O)C2CCN(C(=O)c3ccc(C(=O)NC4CCN(Cc5ccc(S(C)(=O)=O)cc5)CC4)cn3)CC2)cc1 | – | 9140 | 5520 | – | –
6 | O=C(NC1CCN(Cc2ccccc2)CC1)c1ccc(C(=O)NC2CCN(Cc3ccccc3)CC2)nc1 | 10000 | – | – | – | –
7 | CC(C)(c1ccccc1)N1CCC(NC(=O)c2ccc(C(=O)N3CCN(Cc4ccc(F)cc4)CC3)cn2)CC1 | 2790 | – | – | – | –
8 | COc1ccc(CN2CCC(NC(=O)c3ccc(C(=O)N4CCC(C(=O)c5ccc(N6CCCC6)cc5)CC4)nc3)CC2)cc1 | 57 | 13000 | 8400 | 200 | –
9 | N#Cc1ccc(CN2CCC(NC(=O)c3ccc(C(=O)N4CCC(F)(C(=O)c5ccc(F)cc5)CC4)cn3)CC2)cc1 | 2 | – | – | 16 | half-life [3]: 27 min; IC50 (Cytochrome P450 3A4 [4]): > 10000 nM; IC50 (Cytochrome P450 3A4 [5]): > 10000 nM
10 | N#Cc1ccc(S(=O)(=O)N2CCC(NC(=O)c3ccc(C(=O)N4CCN(Cc5ccc(F)cc5)CC4)cn3)CC2)cc1 | 804 | – | – | – | –
11 | N#Cc1ccc(CN2CCC(NC(=O)c3ccc(C(=O)N4CCC(C(=O)c5ccc(N6CCCC6)cc5)CC4)nc3)CC2)cc1 | 20 | 5050 | 5390 | 1660 | –
12 | N#Cc1ccc(CN2CCC(NC(=O)c3ccc(C(=O)N4CCC(Oc5ccc(C#N)cc5)CC4)nc3)CC2)cc1 | 92 | – | – | 476 | –
13 | N#Cc1ccc(CN2CCC(NC(=O)c3ccc(C(=O)N4CCC(C(=O)c5ccc(C#N)cc5)CC4)cn3)CC2)cc1 | 5 | – | – | 794 | inhibition at 3 µM (hERG (KCNH2)): 54%
14 | O=C(c1ccc(C(=O)N2CCN(Cc3ccccc3)CC2)nc1)N1CCN(Cc2ccccc2)CC1 | 10000 | – | – | – | –
15 | COc1ccc(CN2CCC(NC(=O)c3ccc(C(=O)N4CCC(C(=O)c5ccc(OC)cc5)CC4)nc3)CC2)cc1 | 41 | > 20000 | > 20000 | 2310 | inhibition at 3 µM (hERG (KCNH2)): 70%
16 | COc1ccc(C(=O)C2CCN(C(=O)c3ccc(C(=O)NC4CCN(Cc5ccc(NC(C)=O)cc5)CC4)cn3)CC2)cc1 | 1000 | 8790 | 11000 | – | –
17 | N#Cc1ccc(CN2CCC(NC(=O)c3ccc(C(=O)N4CCC(Oc5ccc(C#N)cc5)CC4)cn3)CC2)cc1 | 3 | – | – | 125 | half-life [3]: 30 min; inhibition at 3 µM (hERG (KCNH2)): 47%; IC50 (Cytochrome P450 3A4 [4]): 3500 nM
18 | N#Cc1ccc(CN2CCC(NC(=O)c3ccc(C(=O)N4CCC(Cc5ccccc5)CC4)cn3)CC2)cc1 | 110 | – | – | – | –
19 | N#Cc1ccc(CC2CCN(C(=O)c3ccc(C(=O)NC4CCN(Cc5ccc(C#N)cc5)CC4)nc3)CC2)cc1 | 14 | – | – | 33 | half-life [3]: 14 min
20 | CS(=O)(=O)c1ccc(C(=O)C2CCN(C(=O)c3ccc(C(=O)NC4CCN(Cc5ccc(C#N)cc5)CC4)cn3)CC2)cc1 | 2000 | 6720 | 7190 | – | –
21 | COc1ccc(C(=O)C2CCN(C(=O)c3ccc(C(=O)NC4CCN(Cc5ccc(N)cc5)CC4)cn3)CC2)cc1 | 1000 | 8990 | 13800 | – | –
22 | COc1ccc(CC2CCN(C(=O)c3ccc(C(=O)NC4CCN(Cc5ccc(C#N)cc5)CC4)nc3)CC2)cc1 | 1 | – | – | 7 | half-life [3]: 46 min; IC50 (Cytochrome P450 3A4 [4]): > 10000 nM; IC50 (Cytochrome P450 3A4 [5]): 2000 nM
23 | O=C(NC1CCN(C(=O)C2CCCCC2)CC1)c1ccc(C(=O)N2CCN(Cc3ccc(F)cc3)CC2)cn1 | 300 | – | – | – | –
24 | N#Cc1ccc(CN2CCC(NC(=O)c3ccc(C(=O)N4CCN(C(=O)c5ccccc5)CC4)cn3)CC2)cc1 | 1390 | – | – | – | –

Row | Compound | EC50 [1] [nM] | IC50 (A549) [nM] | IC50 (NCI-H1299) [nM] | IC50 [2] [nM] | also measured
25 | N#Cc1ccc(CN2CCC(NC(=O)c3ccc(C(=O)N4CCC(C(=O)c5ccc(-n6ccnc6)cc5)CC4)nc3)CC2)cc1 | 312 | 15100 | 15100 | – | –
26 | O=C(NC1CCN(Cc2ccc(OC(F)(F)F)cc2)CC1)c1ccc(C(=O)N2CCC(C(=O)c3ccc(N4CCCC4)cc3)CC2)nc1 | 9 | 5060 | 8280 | 1280 | –
27 | N#Cc1ccc(CN2CCC(NC(=O)c3ccc(C(=O)N4CCC(Oc5ccc(F)cc5F)CC4)cn3)CC2)cc1 | 4 | – | – | 22 | –
28 | N#Cc1ccc(CN2CCC(NC(=O)c3ccc(C(=O)N4CCC(Oc5ccc(F)cc5F)CC4)nc3)CC2)cc1 | 13 | – | – | 522 | inhibition at 3 µM (hERG (KCNH2)): 36%
29 | CS(=O)(=O)c1ccc(C(=O)C2CCN(C(=O)c3ccc(C(=O)NC4CCN(Cc5ccc(F)cc5)CC4)cn3)CC2)cc1 | 2000 | 6270 | 8700 | – | inhibition at 3 µM (hERG (KCNH2)): 83%
30 | CC(C)(C)C(=O)N1CCN(C(=O)c2ccc(C(=O)NC3CCN(Cc4ccc(C#N)cc4)CC3)nc2)CC1 | 532 | – | – | – | –
31 | COc1ccc(C(=O)C2CCN(C(=O)c3ccc(C(=O)NC4CCN(Cc5ccc(F)cc5)CC4)cn3)CC2)cc1 | 27 | > 20000 | > 20000 | 2390 | half-life [3]: 71 min; inhibition at 3 µM (hERG (KCNH2)): 64%
32 | O=C(NC1CCN(Cc2ccccc2)CC1)c1ccc(C(=O)N2CCN(Cc3ccccc3)CC2)cn1 | 16 | – | – | – | –
33 | COc1ccc(C(=O)N2CCN(C(=O)c3ccc(C(=O)NC4CCN(Cc5ccc(C#N)cc5)CC4)nc3)CC2)cc1 | 175 | – | – | – | –
34 | N#Cc1ccc(CN2CCC(NC(=O)c3ccc(C(=O)N4CCC(C(F)c5ccc(F)cc5)CC4)cn3)CC2)cc1 (centres undefined) | 6 | – | – | 1 | half-life [3]: 8 min; IC50 (Cytochrome P450 3A4 [4]): 9800 nM
35 | O=C(NC1CCN(C(=O)c2ccccc2)CC1)c1ccc(C(=O)N2CCN(Cc3ccc(F)cc3)CC2)cn1 | 240 | – | – | – | –
36 | COc1ccc(C(=O)C2CCN(C(=O)c3ccc(C(=O)NC4CCN(Cc5ccc(C(=O)N(C)C)cc5)CC4)cn3)CC2)cc1 | 1050 | 13400 | > 20000 | – | –
37 | N#Cc1ccc(CN2CCC(NC(=O)c3ccc(C(=O)N4CCN(Cc5ccc(F)cc5)C(=O)C4)cn3)CC2)cc1 | 466 | – | – | – | –
38 | N#Cc1ccc(CN2CCC(NC(=O)c3ccc(C(=O)N4CCC(C(=O)c5ccc(-n6cncn6)cc5)CC4)nc3)CC2)cc1 | 437 | 4820 | 6310 | – | –
39 | N#Cc1ccc(CN2CCC(NC(=O)c3ccc(C(=O)N4CCN(S(=O)(=O)c5ccc(F)cc5)CC4)cn3)CC2)cc1 | 393 | – | – | – | –
40 | N#Cc1ccc(CN2CCC(NC(=O)c3ccc(C(=O)N4CCC(C(=O)c5ccc(F)cc5)CC4)cn3)CC2)cc1 | 2 | – | – | 21 | –
41 | N#Cc1ccc(CN2CCC(NC(=O)c3ccc(C(=O)N4CCN(S(=O)(=O)c5ccccc5)CC4)cn3)CC2)cc1 | 360 | – | – | – | –
42 | CC(C)(c1ccc(F)cc1)N1CCN(C(=O)c2ccc(C(=O)NC3CCN(Cc4ccc(C#N)cc4)CC3)nc2)CC1 | 6 | – | – | – | –
43 | N#Cc1ccc(CN2CCC(NC(=O)c3ccc(C(=O)N4CCN(C(=O)c5ccc(F)cc5)CC4)cn3)CC2)cc1 | 413 | – | – | – | –
44 | N#Cc1ccc(CN2CCC(NC(=O)c3ccc(C(=O)N4CCC(C(=O)c5ccc(F)cc5F)CC4)nc3)CC2)cc1 | 18 | – | – | 1870 | inhibition at 3 µM (hERG (KCNH2)): 64%
45 | CC1(C)CN(C(=O)c2ccc(C(=O)NC3CCN(Cc4ccc(C#N)cc4)CC3)nc2)CCN1Cc1ccc(F)cc1 | 1 | – | – | – | –
46 | O=C(NC1CCN(Cc2ccccc2)CC1)c1ccc(C(=O)N2CCN(Cc3ccccc3)CC2)nc1 | 35 | – | – | 1390 | –
47 | N#Cc1ccc(C(=O)N2CCC(NC(=O)c3ccc(C(=O)N4CCN(Cc5ccc(F)cc5)CC4)cn3)CC2)cc1 | 950 | – | – | – | –
48 | COc1ccc(CN2CCC(NC(=O)c3ccc(C(=O)N4CCC(C(=O)c5ccc(S(C)(=O)=O)cc5)CC4)nc3)CC2)cc1 | 1500 | 7160 | 8720 | – | –
